PMC7031696 (Cell chemical biology, 2019)
Read-outs that look alike come from different tables or passages of the source.

Assays:
[1] = tested on: Plasmodium falciparum 3D7-A10 parasites; assay: Stage specificity assay (8-h exposure of synchronized stages, IC50^8h); type: cell-based; settings: for Ratio lowest IC50 8hr/IC50 72hr: 3D7-A10; for IC50: Plasmodium falciparum
[2] = tested on: asynchronous 3D7-A10 parasite cultures; assay: Standard 72-h exposure asexual blood stage susceptibility assay (IC50^72h); type: cell-based, Plasmodium falciparum; settings: Plasmodium falciparum, 3D7, 72 h, read-out: Overall (72hr assay) Mean IC50 (IC50^72h)
[3] = tested on: 3D7-MR4 trophozoite parasite-infected RBCs; assay: Metabolomic profiling (hydrophilic metabolite changes, UHPLC-MS); type: cell-based, Plasmodium falciparum
[4] = 3D7, read-out: Early rings IC50 (IC50^8h), 8-h exposure 0–8 hr, bound given in μM
[5] = 3D7, read-out: Early trophozoites Mean IC50 (IC50^8h), 8-h exposure 16–24 hr, 3D7-A10, survival at 60 h
[6] = 3D7, read-out: Late rings IC50 (IC50^8h), 8-h exposure 8–16 hr, bound given in μM
[7] = 3D7, read-out: Late trophozoites Mean IC50 (IC50^8h), 8-h exposure 24–32 hr, 3D7-A10, survival at 60 h
[8] = 3D7, read-out: Schizonts Mean IC50 (IC50^8h), 8-h exposure 32–40 hr, 3D7-A10, survival at 60 h

O=CN(O)CCCP(=O)(O)O [Fosmidomycin, reference compound]
Ratio lowest IC50 8hr/IC50 72hr [1]: 4.9
IC50 ([1]; 3D7, 8 h, read-out: IC50^8h values at all tested stages, 8-h exposures, all asexual blood stages): > 1 µM
IC50 [1, 4]: > 10 µM
IC50 [1, 5]: 1.98 µM
IC50 [1, 6]: > 10 µM
IC50 [1, 7]: 1.99 µM
IC50 ([1]; 3D7, read-out: Schizonts IC50 (IC50^8h), 8-h exposure 32–40 hr, bound given in μM): > 10 µM
Peak Activity (Table S1) ([1]; stage(s) with the lowest IC50^8h): Trophs
IC50 [2]: 405 nM

CCOC(=O)C1=C(C)NC2=C(C(=O)CC(c3ccc(OC)c(OC)c3)C2)C1c1ccccc1Cl (stereo not drawn) [GNF-Pf-5660, reference compound]
Ratio lowest IC50 8hr/IC50 72hr [1]: 18.0
IC50 ([1]; 3D7, read-out: Early rings Mean IC50 (IC50^8h), 8-h exposure 0–8 hr, 3D7-A10, survival at 60 h): 0.119 µM
IC50 [1, 5]: 0.108 µM
IC50 ([1]; 3D7, read-out: Late rings Mean IC50 (IC50^8h), 8-h exposure 8–16 hr, 3D7-A10, survival at 60 h): 0.238 µM
IC50 [1, 7]: 0.0793 µM
IC50 [1, 8]: 0.29 µM
Stage of peak activity (Figure 6) ([1]; period when the parasite was most susceptible (lowest IC50^8h)): rings and trophozoites
IC50 [2]: 4.4 nM
peptide levels (hemoglobin catabolism signature) ([3]; 10 × IC50^72h, 2.5 hr, trophozoites): decreased peptide levels
Log2(fold changes) 3-phosphoglycerate ([3]; metabolite 3-phosphoglycerate, log2 fold change): 0.0553
Log2(fold changes) 4-Pyridoxic acid ([3]; metabolite 4-Pyridoxic acid, log2 fold change): 0.0311
Log2(fold changes) 4-aminobutyrate ([3]; metabolite 4-aminobutyrate, log2 fold change): -0.1913
Log2(fold changes) 4-phosphopantetheine ([3]; metabolite 4-phosphopantetheine, log2 fold change): -0.0588
Log2(fold changes) 4-phosphopantothenate ([3]; metabolite 4-phosphopantothenate, log2 fold change): -0.0656
Log2(fold changes) 5-aminopentanoic acid ([3]; metabolite 5-aminopentanoic acid, log2 fold change): 0.0000
Log2(fold changes) 5-methyl-THF ([3]; metabolite 5-methyl-THF, log2 fold change): 0.0000
Log2(fold changes) 5-phosphoribosyl-1-pyrophosphate ([3]; metabolite 5-phosphoribosyl-1-pyrophosphate, log2 fold change): 0.0000
Log2(fold changes) 6-phospho-D-gluconate ([3]; metabolite 6-phospho-D-gluconate, log2 fold change): -0.0448
Log2(fold change) HVDD ([3]; metabolite HVDD): -2.3471
Log2(fold change) Hydroxyisocaproic acid ([3]; metabolite Hydroxyisocaproic acid): 0.0000
Log2(fold change) IDP ([3]; metabolite IDP): 0.0000
Log2(fold change) IMP ([3]; metabolite IMP): -0.0436
Log2(fold change) Inositol ([3]; metabolite Inositol): 0.0000
Log2(fold change) Isopentyl-PP ([3]; metabolite Isopentyl-PP): 0.0000
Log2(fold change) L-arginino-succinate ([3]; metabolite L-arginino-succinate): -1.4037
Log2(fold change) LD ([3]; metabolite LD): 0.0323
Log2(fold change) Myristoyl/tetradecanoyl-CoA ([3]; metabolite Myristoyl/tetradecanoyl-CoA): 0.0000
Log2(fold change) N-Acetyl-L-alanine ([3]; metabolite N-Acetyl-L-alanine): -0.5679
Log2(fold change) N-acetyl-L-ornithine ([3]; metabolite N-acetyl-L-ornithine): -1.3851
Log2(fold change) N-acetyl-glucosamine-1/6-phosphate ([3]; metabolite N-acetyl-glucosamine-1/6-phosphate): 0.1805
Log2(fold change) N-acetyl-glutamate ([3]; metabolite N-acetyl-glutamate): 0.1150
Log2(fold change) N-acetyl-glutamine ([3]; metabolite N-acetyl-glutamine): -0.5582
Log2(fold change) N-carbamoyl-L-aspartate ([3]; metabolite N-carbamoyl-L-aspartate): -0.1586
Log2(fold change) NAD+ ([3]; metabolite NAD+): -0.1007
Log2(fold change) NADH ([3]; metabolite NADH): 0.4611
Log2(fold change) NADP+ ([3]; metabolite NADP+): 0.0287
Log2(fold change) NADPH ([3]; metabolite NADPH): 0.0479
Log2(fold change) O-acetyl-L-serine ([3]; metabolite O-acetyl-L-serine): 0.0000
Log2(fold change) Octoluse 8/1P ([3]; metabolite Octoluse 8/1P): -0.0806
Log2(fold change) Octoluse Bisphosphate ([3]; metabolite Octoluse Bisphosphate): -0.3183
Log2(fold change) PD ([3]; metabolite PD): -1.8683
Log2(fold change) PE ([3]; metabolite PE): -1.8289
Log2(fold change) PEE ([3]; metabolite PEE): -1.8489
Log2(fold change) PEEK ([3]; metabolite PEEK): -2.1431
Log2(fold change) PVNF ([3]; metabolite PVNF): -2.1997
Log2(fold change) Pyroglutamic acid ([3]; metabolite Pyroglutamic acid): -0.1216
Log2(fold change) Pyrophosphate ([3]; metabolite Pyrophosphate): 0.0000
Log2(fold change) Ribose-5-phosphate ([3]; metabolite Ribose-5-phosphate): 0.0000
Log2(fold change) S-adenosyl-L-homocysteine ([3]; metabolite S-adenosyl-L-homocysteine): -0.0693
Log2(fold change) S-adenosyl-L-methioninamine ([3]; metabolite S-adenosyl-L-methioninamine): 0.0000
Log2(fold change) S-adenosyl-L-methionine ([3]; metabolite S-adenosyl-L-methionine): 0.0000
Log2(fold change) S-methyl-5'-thioadenosine ([3]; metabolite S-methyl-5'-thioadenosine): -0.0720
Log2(fold change) SD ([3]; metabolite SD): -1.1525
Log2(fold change) SDL ([3]; metabolite SDL): -1.7902
Log2(fold change) SID ([3]; metabolite SID): 0.0000
Log2(fold change) Sedoheptulose bisphosphate ([3]; metabolite Sedoheptulose bisphosphate): -0.1508
Log2(fold change) Thiamine pyrophosphate ([3]; metabolite Thiamine pyrophosphate): 0.0000
Log2(fold changes) UDP-D-glucose ([3]; metabolite UDP-D-glucose, log2 fold change): 0.0139
Log2(fold changes) UDP-D-glucuronate ([3]; metabolite UDP-D-glucuronate, log2 fold change): 0.0860
Log2(fold changes) UDP-N-acetyl-glucosamine ([3]; metabolite UDP-N-acetyl-glucosamine, log2 fold change): -0.0276
Log2(fold changes) UDP ([3]; metabolite UDP, log2 fold change): 0.1561
Log2(fold changes) UMP ([3]; metabolite UMP, log2 fold change): -0.3498
Log2(fold changes) UTP ([3]; metabolite UTP, log2 fold change): 0.0000
Log2(fold change) hydroxyphenylpyruvate ([3]; metabolite hydroxyphenylpyruvate): 0.0000
Log2(fold change) hydroxyproline/Aminolevulinate ([3]; metabolite hydroxyproline/Aminolevulinate): 0.0000
Log2(fold change) hypoxanthine ([3]; metabolite hypoxanthine): 0.0715
Log2(fold change) indole ([3]; metabolite indole): -0.1422
Log2(fold change) inosine ([3]; metabolite inosine): -0.1669
Log2(fold change) isoleucine ([3]; metabolite isoleucine): 0.0000
Log2(fold change) lactate ([3]; metabolite lactate): -0.0958
Log2(fold change) leucine ([3]; metabolite leucine): 0.0000
Log2(fold change) lysine ([3]; metabolite lysine): 0.0000
Log2(fold change) malate ([3]; metabolite malate): -0.8784
Log2(fold change) maleic acid ([3]; metabolite maleic acid): -0.8581
Log2(fold change) methionine ([3]; metabolite methionine): -0.1925
Log2(fold change) myo-inositol ([3]; metabolite myo-inositol): 0.0386
Log2(fold change) nicotinamide mononucleotide ([3]; metabolite nicotinamide mononucleotide): -0.1106
Log2(fold change) nicotinate ([3]; metabolite nicotinate): 0.1148
Log2(fold change) ornithine ([3]; metabolite ornithine): -0.1689
Log2(fold change) orotate ([3]; metabolite orotate): -0.3275
Log2(fold change) orotidine-5'-phosphate ([3]; metabolite orotidine-5'-phosphate): -1.3140
Log2(fold change) oxaloacetate ([3]; metabolite oxaloacetate): -0.1481
Log2(fold change) p-aminobenzoate ([3]; metabolite p-aminobenzoate): -0.1878
Log2(fold change) p-hydroxybenzoate ([3]; metabolite p-hydroxybenzoate): 0.0000
Log2(fold change) pantothenate ([3]; metabolite pantothenate): -0.2858
Log2(fold change) phenylalanine ([3]; metabolite phenylalanine): -0.3503
Log2(fold change) phenylpyruvate ([3]; metabolite phenylpyruvate): 0.0000
Log2(fold change) phosphoenolpyruvate ([3]; metabolite phosphoenolpyruvate): 0.2491
Log2(fold change) prephenate ([3]; metabolite prephenate): -0.5893
Log2(fold change) proline ([3]; metabolite proline): 0.0000
Log2(fold change) pyridoxine ([3]; metabolite pyridoxine): -0.1054
Log2(fold change) pyruvate ([3]; metabolite pyruvate): -0.3244
Log2(fold change) riboflavin ([3]; metabolite riboflavin): -0.0162
Log2(fold change) ribose ([3]; metabolite ribose): 0.0000
Log2(fold change) ribose-phosphate ([3]; metabolite ribose-phosphate): -0.2537
Log2(fold change) ribulose-5-phosphate ([3]; metabolite ribulose-5-phosphate): 0.0000
Log2(fold change) serine ([3]; metabolite serine): 0.0000
Log2(fold change) sn-glycerol-3-phosphate ([3]; metabolite sn-glycerol-3-phosphate): 0.1845
Log2(fold change) succinate/Methylmalonic acid ([3]; metabolite succinate/Methylmalonic acid): -0.0086
Log2(fold change) succinyl-CoA/methylmalonyl-CoA ([3]; metabolite succinyl-CoA/methylmalonyl-CoA): 0.0000
Log2(fold change) taurine ([3]; metabolite taurine): 0.0000
Log2(fold change) thiamine ([3]; metabolite thiamine): -0.1840
Log2(fold change) threonine/homoserine ([3]; metabolite threonine/homoserine): 0.0000
Log2(fold change) thymidine ([3]; metabolite thymidine): 0.0000
Log2(fold changes) thymine ([3]; metabolite thymine, log2 fold change): 0.0000
Log2(fold changes) trehalose-6-Phosphate ([3]; metabolite trehalose-6-Phosphate, log2 fold change): 0.0000
Log2(fold changes) tryptophan ([3]; metabolite tryptophan, log2 fold change): -0.0821
Log2(fold changes) tyrosine ([3]; metabolite tyrosine, log2 fold change): -0.1854
Log2(fold changes) uridine ([3]; metabolite uridine, log2 fold change): -0.2184

CCOC(=O)C1=C(C)N=c2s/c(=C\c3cc(Cl)ccc3O)c(=O)n2C1c1ccc(OC)cc1 (stereo not drawn) [MMV665971]
Ratio lowest IC50 8hr/IC50 72hr [1]: 2.6
killing in stage specificity assay ([1]; 8-h exposures, survival curves): incomplete killing at all asexual blood stages
IC50 [1, 4]: > 25 µM
IC50 [1, 5]: 0.496 µM
IC50 [1, 6]: > 25 µM
IC50 [1, 7]: 0.485 µM
IC50 [1, 8]: 0.523 µM
IC50 [2]: 185 nM
